# Measurements reported in ChEMBL document CHEMBL4665901, “Novel CDK2 Inhibitors for Treating Cancer” (ACS Med Chem Lett, 2020).
# Biological target: Cyclin-dependent kinase 2/cyclin E1 (Homo sapiens, UniProt P24941)
# Assay: Inhibition of recombinant full length wild-type CDK2/Cyclin E1 (unknown origin) expressed in baculovirus expression system assessed as […] using 5-FAM-QSPKKG-CONH2 peptide as substrate preincubated with enzyme for 15 mins followed by further incubation with ATP for 45 mins by fluorescence-based microfluidic mobility shift assay
row,SMILES,Ki
1,COc1ccc(CC(=O)Nc2cc([C@@H]3CC[C@H](OC(=O)N4CCC4(C)C)C3)[nH]n2)cn1,0.12 nM
2,"Cc1ncc(CC(=O)Nc2cc([C@H]3CC[C@@H](OC(=O)N4C[C@@H](C#N)[C@@H]4C)C3)[nH]n2)s1 (single isomer, unassigned)",0.15 nM
3,"COc1ccc(CC(=O)Nc2cc([C@H]3CC[C@@H](OC(=O)N4C[C@@H](C#N)[C@@H]4C)C3)[nH]n2)cn1 (single isomer, unassigned)",0.17 nM
4,"CCC(CO)CNC(=O)O[C@@H]1CC[C@H](c2cc(NC(=O)Cc3ccc(OC)nc3)n[nH]2)C1 (single isomer, unassigned)",0.77 nM
